Read-outs that look alike come from different tables or passages of the source.
Columns and labels:
[1] = Bioavailability after intravenous, oral and sublingual administration in rat; conditions: in vivo, rats
Description: Similarly to the Example above, Compound 8 was also administered to rat intravenously, orally and sublingual. Also the prodrug of Compound 8, i.e. Compound 9, was administered. The bioavailability (% F) indicated for the prodrug Compound 9 is the results of measurements of the bioavailability for Compound 8, which Compound 9 is converted into upon administration. AUC 0-4 was used for calculation of the bioavailability.

[2] = Brain to plasma ratio in rats; assay type: in vivo
[3] = Unidirectional permeability across MatTek EpiOral buccal tissue; assay type: in vitro ADME, human
Description: EpiOral→tissues plated in 24-well plates were obtained from MatTek Corporation (Ashland, Mass., USA). The assay buffer was Dulbeccos' Phosphate Buffered Saline (DPBS) without Ca & Mg chloride, pH 7.4. Each test compound was co-dosed with the two control compounds. Targeting dosing concentrations were 10 μM for each test compound and 100 μM for the two control compounds. Prior to the permeability assay onset, the tissues were preequilibrated in a pre-warmed EpiOral assay medium for one hour at 37° C. in a 5% CO2 incubator. The EpiOral assay medium was aspirated after the pre-equilibration, and the tissues were washed twice with the DPBS buffer. The receiver chambers were filled with 0.75 mL of the DPBS buffer, while the donor chambers received 0.4 mL of the dosing solutions. The assay plates were placed at 37° C. in a 5% CO2 incubator. The receiver samples (200 μL) were collected at 30, 60, and 120 minutes, and replaced with an equal volume of fresh pre-warmed receiver buffer (except for the last time point of 120 minutes). The donor sides were sampled at 0 and 120 minutes. The test compounds were then analyzed using LC-MS/MS.

[4] = Microsomal bioavailability (Table 2); assay type: in vitro ADME; conditions: read-out: Microsomal bioavailability F (%)
CFA-treated animals = assay: Complete Freund's Adjuvant (CFA) model of chronic inflammation; assay type: in vivo, Rats; conditions: 10 mg/kg sc, 24 hrs after drug administration
Description: Rats were treated with Complete Freund's Adjuvant (CFA). After 4 days (upon reaching stable inflammation), CFA-treated animals were treated with 10 mg/kg subcutaneously (sc) of Compound 8, incomplete Freund's Adjuvant or vehicle, respectively. Responses were measured 24 hrs after drug administration. […] Latencies, expressed in seconds (sec), were defined as the time needed for the animal to remove the treated paw from the hot surface.

[5] = Bioavailability after intravenous and sublingual administration in male beagle dogs; assay type: in vivo; conditions: for half-life: 10 mg/kg
Description: In this example, the sublingual bioavailability of Compound 8 was evaluated after intravenous and sublingual doses in male beagle dogs. The test compound was dosed at 1 and 10 mg/kg through intravenous and sublingual routes, respectively. Plasma samples were collected 10 min, 20 min, 30 min, 45 min, 1 hour, 2 hours, 4 hours, 8 hours, 12 hours and 24 hours post dose. Plasma levels were determined by LC-MS/MS analysis. A pre-study standard curve was analyzed to determine the specificity, range and lower limit of quantification of the LC-MS/MS method. The study samples were treated identically to the standards. Pharmacokinetic parameters were estimated by a non-compartmental model using WinNonlin v4.1 software.

[6] = Metabolic stability in liver microsomes, human; assay type: in vitro ADME; conditions: low value = metabolically stable
Description: (§1) Also the metabolic stability in liver microsomes was tested for some compounds.

Taxol-induced allodynia = assay: Taxol-induced neuropathy model; assay type: in vivo, male SD rats; conditions: 2 hours post-dose
Description: Neuropathy was induced in male SD rats by 4×1 mg/kg consecutive daily doses of taxol as described (Naguib M, Diaz P, Xu J J, Astruc-Diaz F, Craig S, Vivas-Mejia P, Brown D L. MDA7: a novel selective agonist for CB2 receptors that prevents allodynia in rat neuropathic pain models. Br J. Pharmacol. 2008 December; 155(7):1104-16). The presence of tactile allodynia (von Frey filament 50% response threshold of <5 g) was confirmed prior to inclusion in the study. Drugs were administered sub-cutaneously (s.c.) except gabapentin was given intra-peritoneally (i.p.). Doses are given in mg/kg. * p<0.05.
Allodynia was assessed by applying a light tactile stimulus (Von Frey hairs) to the plantar surface of the surgical paw until the 50% threshold was established. A positive response was recorded if the paw was sharply withdrawn. Eight VonFrey hairs were used (3.61, 3.84, 4.08, 4.31, 4.56, 4.74, 4.93 and 5.18). MPE (%) was calculated as [(Rdrug−Rveh)/(Rsham−Rveh)]*100% where Rveh was 4 and Rsham was 13. Repeat dosing (FIG. 10C) was performed by administering the indicated doses of Compound 8 once daily via the s.c. route. Efficacy was measured 2 hours post-dose.

[7] = system: L5/L6 spinal nerve ligation; assay: Spinal nerve ligation model of neuropathic pain; assay type: in vivo, male Sprague-Dawley rats; conditions: s.c.
Description: Spinal nerve ligation of the L5/L6 nerve was done as originally described by Kim and Chung, using male Sprague-Dawley rats. Allodynia was assessed by applying a light tactile stimulus (Von Frey hairs) to the plantar surface of the surgical paw until the 50% threshold is established. A positive response is recorded if the paw is sharply withdrawn. Eight VonFrey hairs were used (3.61, 3.84, 4.08, 4.31, 4.56, 4.74, 4.93 and 5.18).

[8] = Metabolic stability in liver microsomes, rat; assay type: in vitro ADME; conditions: low value = metabolically stable
Description: as §1

TNFα = assay: ELISA for TNFα in PBMCs and brain homogenate after 6OHDA lesion; assay type: in vivo, rat; conditions: 6OHDA rats
Description: Thus, Compound 8 was assessed to determine whether ERβ agonist treatment might alter the inflammatory profile following bilateral 6OHDA lesions of the SN. ELISAs for tumor necrosis factor α (TNFα), monocyte chemotactic protein 1 (MCP-1 aka CCL2), interleukin-6 (IL-6), and interleukin-1β were conducted in peripheral blood mononuclear cells (PBMCs) and brain tissue homogenates from sham or 6OHDA treated animals. […] Both TNFα and MCP-1 were elevated in PBMCs from 6OHDA animals (data not shown). Thus, these two markers were chosen for further examination. […] Treatment with Compound 8 prevented the rise in TNFα in both brain and PBMCs (FIG. 6). MCP-1 was elevated in PBMCs following 6OHDA when blood was taken on day 7 post-surgery, but not in brain homogenates taken on day 14 (following behavioral testing). The increase in MCP-1 in PBMCs was not prevented by Compound 8 treatment, even though the behavioral profile was normal. Thus, TNFα might be a maker of an inflammatory pathway triggered by 6OHDA infusion and prevented by treatment with an ERβ agonist in a manner that also prevents motor deficits and dopamine neuron loss in the substantia nigra.

[9] = dog intravenous 1 mg/kg vs parameters observed in rats

In the case of `Oc1ccc(C2(c3ccccc3F)CCC(F)(F)CC2)cc1` [Compound 8, 4-(4,4-Difluoro-1-(2-fluorophenyl)cyclohexyl)phenol], the bioavailability ([1]; po, Compound 8 dosed orally, read-out: oral bioavailability) is reported as roughly 8%, the bioavailability ([1]; Compound 8 dosed sublingually, read-out: sublingual bioavailability) is reported as 79% and the “brain to plasma ratio” value [2] is reported as “good brain to plasma ratio”. For the same molecule, the “permeability classification in MatTek EpiOral buccal tissue” value (from here on “permeability classification”) [3] was “highly permeable”, the Microsomal bioavailability (predicted from microsomes) [4] was 4.2% and the “edema in the treated paw (inflammation)” value (CFA-treated animals) was “inhibits hyperalgesia and inflammation”. For the same molecule, the “thermal hyperalgesia, 52° C. hot plate latency” value (CFA-treated animals) was “inhibits hyperalgesia”, the “Cmax increase compared to rats” value [5, 9] was 2 fold and the “clearance decrease compared to rats” value [5, 9] was 2 fold. The “volume of distribution decrease compared to rats” value [5, 9] was 2 fold, the half-life ([5]; male, beagle, dog, plasma, dog, sublingual 10 mg/kg, read-out: average half-life (converted)) was 2.08 ± 0.5 h and the half-life ([5]; male, beagle, dog, plasma, dog, sublingual, as summarised, read-out: half life (converted)) was 2 h. The bioavailability ([5]; male, beagle, plasma, other: sublingual, dog, sublingual 10 mg/kg vs intravenous 1 mg/kg, read-out: overall percent bioavailability following sublingual dose) was 44%, the clearance ([5]; male, beagle, plasma, dog, intravenous 1 mg/kg) was 47 mL/min/kg and the Cmax ([5]; male, beagle, plasma, dog, intravenous 1 mg/kg, read-out: average maximum concentration (Cmax)) was 738 ± 199 ng/mL. For the same molecule, the Vd ([5]; male, beagle, plasma, dog, intravenous 1 mg/kg, read-out: volume of distribution) was 3.5 ± 0.9 L/kg, the Cmax ([5]; male, beagle, plasma, dog, sublingual 10 mg/kg, read-out: Cmax) was 1060 ± 110 ng/mL and the microsomal CLint [6] was 11 µL/min/mg. The “efficacy on repeat dosing” value (Taxol-induced allodynia; once daily s.c.) was “maintained over 5 days”, the “effect on Taxol-induced allodynia” value (Taxol-induced allodynia; s.c. (gabapentin i.p.), Compound 8 at 10 and 30 mg/kg) was “essentially complete reversal” and the “allodynia (Von Frey 50% threshold)” value [7] was “reverses allodynia”. For the same molecule, the microsomal CLint [8] was 150 µL/min/mg and the “6OHDA-induced increase of TNFα in PBMCs and brain” value (TNFα) was “blocked this increase”.
With `Oc1ccc(C2(c3cccc(F)c3Cl)CCCCC2)cc1` [Compound 623] the “permeability classification” value [3] was “low permeability”.
In the case of `Oc1ccc(C2(c3ccccc3Cl)CCCCC2)cc1F` [Compound 957], the “permeability classification” value [3] is reported as “low permeability”, the microsomal CLint [6] is reported as 20 µL/min/mg and the microsomal CLint [8] is reported as 450 µL/min/mg.

Reference: patent US9061981B2, “Diphenyl substituted cyclohexane derivatives, useful as modulators of the estrogen receptors beta” (Acadia Pharmaceuticals Inc., priority 2011, dated 2015)
